# Data from patent US20060073528A1, “Measurement methods” (priority 2004, published 2006).
# Values joined by “and” are separate entries in the source; they are usually repeats but may differ in a detail not shown here. Equal entries are not always repeated. Where two headings read alike, the source gives them in different places.
# How the values were obtained:
# [1] = Sample stability of DM1-related impurities with DS-DM1-deJ591 in the autosampler (Hisep RP-HPLC)
# Experimental: The sample was analyzed at times t=0 h, 12 h, and 24 h. Sample stability was determined by comparing the area percent (area %) values of the stored sample to that of the initially-prepared solution (t=0 h).
# [2] = Lyophilized standard stocks reconstituted and analyzed by Hisep RP-HPLC (monomer to dimer conversion); format: physicochemical; details: for Dimer area observed / Monomer area observed: single injections
# Experimental: All vials contained a total of 15 nmol. Two vials of each standard were reconstituted by adding 150 μL of 50% acetonitrile/0.01% TFA to make a 100 μM stock solution; the remaining vials were reconstituted with 300 μL to make 50 μM stocks. The stocks were further diluted to the working concentration of 5 μm and analyzed. […] The stability of these standards were monitored over time.
# [3] = 50 μM stock - lyophilized, average per vial
# [4] = 100 μM stock - lyophilized, average per vial
# [5] = 100 μM stock - lyophilized, vials 1 and 2
% remaining area counts relative to t = 0 h (12 h),% remaining area counts relative to t = 0 h (24 h),SMILES,Average peak area ([1]; t = 0 h),Average peak area ([1]; t = 12 h),Average peak area ([1]; t = 24 h),"DM1 monomer to dimer conversion after lyophilization ([2]; 15 nmol vials lyophilized, reconstituted in 50% acetonitrile/0.01% TFA to 100 μM or 50 μM, diluted to 5 μM)","Dimer area observed, Average [2, 3]","Monomer area observed, Average [2, 3]",Dimer area observed ([2]; 50 μM stock - lyophilized),"Monomer area observed ([2]; 50 μM stock - lyophilized, vials 1 and 2)","Dimer area observed, Average [2, 4]","Monomer area observed, Average [2, 4]","Dimer area observed [2, 5]","Monomer area observed [2, 5]","Monomer area observed, Average ([2]; 100 μM stock - untreated)",Monomer area observed ([2]; 100 μM stock - untreated)
–,–,"COc1cc2cc(c1Cl)N(C)C(=O)CC(OC(=O)C(C)N(C)CC(=O)CCSSC(C)CCC(=O)O)C1(C)OC1C(C)C1CC(O)(NC(=O)O1)C(OC)C=CC=C(C)C2 (stereo not shown) [DM1-TPA adduct, DM1-thiopentanoic acid adduct]",246302,245410,245126,–,–,–,–,–,–,–,–,–,–,–
–,–,COc1cc2cc(c1Cl)N(C)C(=O)C[C@H](OC(=O)[C@H](C)N(C)C(=O)CCS)[C@]1(C)O[C@H]1[C@H](C)[C@@H]1C[C@@](O)(NC(=O)O1)[C@H](OC)/C=C/C=C(\C)C2 [DM1 monomer],223667,217293,214265,significant DM1 monomer→dimer conversion,10669,476235 and 412633,10097 and 10809 and 11100,476970 and 475075 and 476660 and 415292 and 411974 and 410632,10086 and 10158,391081 and 417523,10508 and 8635 and 11114 and 10029 and 10666 and 9780,392043 and 391526 and 389675 and 418902 and 418204 and 415463,459843,459407 and 460238 and 459885
–,–,S=c1cccc[nH]1 [mercaptopyridine],15446,15654,15620,–,–,–,–,–,–,–,–,–,–,–
96.83%,98.20%,"CC(CCC(=O)O)SSc1ccccn1 (stereo not shown) [PPA, 4-(2-pyridyldithio) pentanoic acid]",15881,15377,15595,–,–,–,–,–,–,–,–,–,–,–
